Where two headings read alike, the source gives them in different places.
Experiments:
mortalin binding to C9 = molecular target: T1, mortalin binding to C9 (Homo sapiens, UniProt P38646); assay: Binding of mortalin to complement C9 (ELISA); conditions: K562 cell lysate with or without 50 μM MKT-077 on C9-coated wells; P<0.005
T1 construct: incubated with K562 lysates (source for mortalin), with or without MKT-077; endogenous in cells; host or cells: K562 cell lysate
Procedure: FIG. 5 is a histogram depicting the interference of MKT-077 with binding of mortalin to C9. Microtiter plate wells were coated overnight with C9 or BSA (0.5 μg per well) and then incubated with K562 cell lysate (40×10^6 cells ml^−1 lysis buffer) diluted 1:25 with or without 50 μM MKT-077. The wells were washed and treated with anti-mortalin antibody and peroxidase-labeled second antibody, developed with o-phenilenediamine (OPD) and analyzed in an ELISA reader. Results present the quantity of mortalin in each experimental group and are representative of three independent experiments. *,P<0.005 between groups with and without MKT-077.
Binding of mortalin to complement C9—Binding of mortalin to the complement C9 protein was examined by ELISA analysis. In brief, purified human C9 and BSA (0.5 μg per well each) were bound overnight at 4° C. to a 96-well Enzyme Immunoassay (EIA) plate (Corning, N.Y., USA). Diluted cell lysate prepared from 40×10^6 K562 cells as described above was added to each well for 60 minutes at 37° C. After washes, monoclonal mouse anti-mortalin antibody (diluted 1:500) was added for 30 minutes at 37° C. and then peroxidase-conjugated goat anti-mouse IgG was added for 30 minutes at room temperature. Next, o-phenylenediamine (Sigma) was added and the plate was examined in a Spectrafluor Plus plate reader (Tecan, Austria) at 450 nm. […]

[1] = system: HCT116 colon carcinoma cell line (HCT) p53 +/+ and HCT p53 −/− cells; assay: Complement-mediated lysis of HCT p53 +/+ and HCT p53 −/− cells; type: cell-based; conditions: HCT p53 +/+ versus HCT p53 −/− cells
Procedure: FIG. 3 is a histogram depicting that the effect of MKT-077 on complement-mediated lysis is p53-independent. HCT116 colon carcinoma cell line (HCT) p53 +/+ and HCT p53 −/− cells were pretreated for 1 hour at 37° C. with 50 μM MKT-077 and then treated with a lytic dose of anti-K562 antibody (1:9) and NHS or HI-NHS. After incubation for 1 hour at 37° C., percent cell lysis was measured by Trypan blue inclusion. Results present the percentage of cell lysis and are representative of three independent experiments.
Cell lysis and collection of secreted vesicles—Cytotoxicity assay was performed as described before [Reiter, Y. and Z. Fishelson, Complement membrane attack complexes induce in human leukemic cells rapid expression of large proteins (L-CIP). Mol Immunol, 1992. 29(6): p. 771-81]. Briefly, for a cell lysis assay, cells were incubated with diluted anti-K562 antiserum for 30 minutes at 4° C. and then with complement [NHS or heat-inactivated normal human serum (HI-NHS), 50%] for 60 minutes at 37° C. Cell lysis was determined by Trypan blue inclusion. Statistical significance was analyzed by using the two-sided unpaired Student's t-test. […]
The effect of MKT-077 on complement-mediated lysis is p53-independent—MKT-077 is known to prevent the binding of mortalin to p53 (Wadhwa et al. Cancer Res. 15: 6818-6821, 2000). […] After 60 minutes at 37° C., percent lysis was measured.

human tumor cells = human tumor cells tested; cited from earlier work
[2] = cited from earlier work
K562 cells [3] = assay: Complement-mediated lysis of K562 cells (Trypan blue inclusion); type: cell-based, human; conditions: for effect on complement-mediated lysis (percent cell lysis): K562 cells pretreated 60 minutes at 37° C. at different concentrations, then anti-K562 antibodies and NHS, Trypan Blue
Procedure: FIG. 1 is a histogram depicting the sensitization of cells to complement mediated lysis by MKT-077. K562 cells were pretreated for 1 hour at 37° C. with increasing concentrations of MKT-077 [or double distilled water (DDW); NT] and then treated with a sublytic dose of anti-K562 antibody (1:14) and complement [Normal human serum (NHS)] or heat-inactivated NHS (HI-NHS). After incubation for 1 hour at 37° C., percent cell lysis was measured with 0.2% Trypan Blue. Results present the percentage of cell lysis and are representative of four independent experiments. P<0.01 between NT group and the other groups.
K562 cells were treated for 60 minute at 37° C. with different concentrations of MKT-077 or Rhodamine123 (Rho123), followed by treatment for another 60 minutes with anti-K562 antibodies and NHS or HI-NHS and the cell lysis was measured by Trypan blue inclusion. Results are representative of three independent experiments. *P<0.05, between cells treated with NHS and MKT-077 and cells treated with NHS without MKT-077.
(§1) Cell lysis and collection of secreted vesicles—Cytotoxicity assay was performed as described before [Reiter, Y. and Z. Fishelson, Complement membrane attack complexes induce in human leukemic cells rapid expression of large proteins (L-CIP). Mol Immunol, 1992. 29(6): p. 771-81]. […] Cell lysis was determined by Trypan blue inclusion. Statistical significance was analyzed by using the two-sided unpaired Student's t-test. […]
MKT-077 sensitizes cells to complement-mediated lysis—Human K562 erythroleukemia cells were pretreated for 60 minutes at 37° C. with MKT-077, at different concentrations, and then the cells were treated for additional 60 minutes at 37° C. with anti-K562 antibodies for 30 minutes on ice and with complement (NHS) or heat-inactivated NHS (HI-NHS) as control. Finally, cells were washed and percent cell lysis was quantified by Trypan Blue inclusion. […]

K562 cells [4] = assay: SLO-mediated lysis of K562 cells; type: cell-based, human; conditions: K562 pretreated 1 hour with 50 μM, then 900 and 1200 units ml^−1 SLO, 15 minutes at 37° C.
Procedure: (§2) FIG. 4a—K562 cells were pretreated for 1 hour at 37° C. with 50 μM MKT-077 and then treated with 900 and 1200 units ml^−1 SLO or with DTT as control. After 15 minutes at 37° C., cell lysis was measured by Trypan blue inclusion. Results are representative of three independent experiments. FIG. 4b—K562 cells were treated for 1 hour at 37° C. with increased concentrations of A23187 and with 50 μM MKT-077. Cell lysis was then measured by Trypan blue inclusion. Results present the percentage of cell lysis and are representative of three independent experiments.
(§3) MKT-077 has no effect on SLO-mediated lysis and A23187-mediated lysis—The present inventors have further addressed the question of specificity of the effect of MKT-077 on cell death. The effect of MKT-077 on cell death induced by Streptolysin O (SLO), another cytolytic pore-forming protein, was examined. Cells were pretreated with MKT-077 and then treated with several doses of SLO or with dithiothreitol (DTT) as control. Lysis was measured after 15 minutes incubation at 37° C. Results presented in FIG. 4a show no effect of MKT-077 on SLO-mediated lysis. The present inventors have further examined the effect of MKT-077 on cell death induced by the Ca^+2 ionophore A23187. […] Next, the cells were washed and percent cell death was measured.

[5] = cited from earlier work; remark: listed apart in the source
K562 cells [6] = assay: Release of mortalin and C9 by vesiculation after complement attack (Western blot); type: cell-based, human; conditions: K562 cells pretreated 1 hour with 200 μM or 50 μM, sublytic anti-K562 antibodies and NHS
Procedure: K562 cells pretreated with 50 μM MKT-077 (or with double distilled water) were treated for 10 minutes at 37° C. with a sublytic dose of anti-K562 antibody and NHS or HI-NHS. Then, the cells were washed 4 times with Hank's Balanced Salt Solution (HBSS; Sigma, Rehovot, Israel), incubated for 10 minutes at 37° C. and supernatant were collected. Released proteins were first sedimented at 5,000 g for 15 minutes and then centrifuged at 100,000 g for 30 minutes for vesicles isolation. High-speed supernatant and pellets were analyzed by SDS-PAGE and Western Blotting with anti-mortalin (FIG. 2a) or anti-C9 (FIG. 2b) antibodies. Results are representative of three independent experiments.
as §1
Protein analysis—Protein concentration was analyzed with the BCA Protein Assay Kit (Pierce, Rockford, Ill., USA). […]

K562 cells [7] = assay: A23187-mediated lysis of K562 cells; type: cell-based, human; conditions: K562 treated 1 hour at 37° C. with increased concentrations of A23187 and 50 μM MKT-077
Procedure: as §2, §3

[8] = bolus dose (30 minutes i.v. infusion) 126 mg/m^2/week X 4 weeks every 6 weeks

T1 sequence (P38646 47-679): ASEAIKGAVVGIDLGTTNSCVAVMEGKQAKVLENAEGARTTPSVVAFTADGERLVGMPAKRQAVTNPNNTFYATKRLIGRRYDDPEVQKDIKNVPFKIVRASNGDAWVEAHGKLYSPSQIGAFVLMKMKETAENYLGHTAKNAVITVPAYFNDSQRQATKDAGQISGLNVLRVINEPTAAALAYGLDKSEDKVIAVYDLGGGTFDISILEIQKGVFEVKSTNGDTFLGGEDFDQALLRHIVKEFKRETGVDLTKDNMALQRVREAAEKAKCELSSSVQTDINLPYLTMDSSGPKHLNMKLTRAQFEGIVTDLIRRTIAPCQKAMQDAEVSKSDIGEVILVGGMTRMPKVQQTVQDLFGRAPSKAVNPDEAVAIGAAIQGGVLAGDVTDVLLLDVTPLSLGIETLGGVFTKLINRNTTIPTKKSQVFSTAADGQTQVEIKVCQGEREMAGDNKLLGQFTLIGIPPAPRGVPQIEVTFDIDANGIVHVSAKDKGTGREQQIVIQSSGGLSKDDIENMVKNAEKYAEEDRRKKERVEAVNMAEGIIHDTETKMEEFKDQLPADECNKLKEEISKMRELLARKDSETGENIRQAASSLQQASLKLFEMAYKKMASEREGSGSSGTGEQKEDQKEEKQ

Row | Compound | ability of mortalin to bind C9 (mortalin binding to C9) | p53 dependence of the complement sensitization effect [1] | IC50 concentrations required in vitro (human tumor cells) | toxicity ([2]; cancer patients, continuous i.v. infusion 150 mg/m^2/five days (30 mg/m^2, day, for 5 days)) | toxicity ([2]; five-day infusion (30-50 mg/m^2/day) once every three weeks, chemo-resistant solid tumors) | effect on complement-mediated lysis (percent cell lysis) (K562 cells [3]) | mortalin dependence of the effect on complement-mediated lysis (K562 cells [3]; data not shown) | effect on SLO-mediated lysis (K562 cells [4]) | associated toxicity [5, 8] | plasma concentrations [5, 8] | tolerability [5, 8] | toxicity ([5]; single bolus weekly infusion (42 mg/m^2) for 4 weeks every 6 weeks) | release of C9 by vesiculation (K562 cells [6]; Western blot anti-C9) | release of mortalin by vesiculation (K562 cells [6]; Western blot anti-mortalin) | effect on A23187-mediated lysis (K562 cells [7])
1 | CCn1c(=Cc2cccc[n+]2CC)sc(=C2Sc3ccccc3N2C)c1=O.[Cl-] [MKT-077] | significant decrease | presence or absence of p53 had no effect | 0.15-0.5 microgram/ml | renal toxicity | renal toxicity | significantly enhances killing | mortalin-dependent | no effect | hypomagnesemia (kidney toxicity) | 1.2-6.3 microgram/ml | well tolerated | manageable hypomagnesemia | inhibited | inhibited | no effect
2 | Rhodamine123 |  |  |  |  |  | no effect |  |  |  |  |  |  |  |  | 
